Source: paper PMC5498157 (Chemical research in toxicology, 2017)
Where two headings read alike, the source gives them in different places.

How the values were obtained:
[1] = molecular target: T1, ALKBH2 (Homo sapiens, UniProt Q6NS38); conditions: 37 °C
T1 sequence (Q6NS38 1-261): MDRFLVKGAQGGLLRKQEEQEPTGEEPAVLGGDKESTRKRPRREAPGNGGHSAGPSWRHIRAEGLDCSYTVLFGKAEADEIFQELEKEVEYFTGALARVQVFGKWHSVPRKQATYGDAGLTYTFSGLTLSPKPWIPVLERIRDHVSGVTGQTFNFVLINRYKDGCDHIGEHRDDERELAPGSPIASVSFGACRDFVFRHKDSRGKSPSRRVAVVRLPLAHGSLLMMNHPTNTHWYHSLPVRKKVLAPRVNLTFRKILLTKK

[2] = molecular target: T2, ALKBH3 (Homo sapiens, UniProt Q96Q83); conditions: 37 °C
T2 sequence (Q96Q83 1-286): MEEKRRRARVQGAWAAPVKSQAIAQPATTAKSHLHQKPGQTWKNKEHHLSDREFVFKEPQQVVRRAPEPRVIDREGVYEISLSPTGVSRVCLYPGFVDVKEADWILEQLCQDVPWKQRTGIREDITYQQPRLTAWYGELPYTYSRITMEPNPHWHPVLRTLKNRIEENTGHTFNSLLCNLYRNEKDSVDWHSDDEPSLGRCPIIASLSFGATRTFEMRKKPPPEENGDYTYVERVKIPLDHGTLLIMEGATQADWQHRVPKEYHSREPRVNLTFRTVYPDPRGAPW

[3] = molecular target: T3, AlkB (Escherichia coli, UniProt P05050); conditions: 37 °C
[4] = molecular target: T2, ALKBH3; test: Inhibition constant; assay type: biochemical; conditions: versus αKG, 37 °C
[5] = molecular target: T3, AlkB; test: Inhibition constant; assay type: biochemical
[6] = molecular target: T1, ALKBH2; test: Inhibition of ALKBH2 repair at tumor-relevant 2HG:αKG ratios; assay type: biochemical; conditions: L-2HG:αKG = 28:1, αKG 100 µM; range over all substrates
[7] = molecular target: T2, ALKBH3; test: Inhibition of ALKBH3 repair at tumor-relevant 2HG:αKG ratios; assay type: biochemical; conditions: L-2HG:αKG = 28:1, αKG 100 µM; range over all substrates
[8] = test system: ALKBH2 and ALKBH3; assay type: biochemical, human; conditions: L-2HG:αKG = 28:1, αKG 100 µM; range over both enzymes and all substrates
[9] = molecular target: T1, ALKBH2; test: Inhibition constant; assay type: biochemical; conditions: for Ki: versus αKG, 37 °C
[10] = AlkB, ds-m1A, versus αKG, 37 °C
[11] = AlkB, ds-m3C, versus αKG, 37 °C
[12] = AlkB, ss-m1A, versus αKG, 37 °C
[13] = AlkB, ss-m3C, versus αKG, 37 °C

T3 sequence (P05050 whole entry): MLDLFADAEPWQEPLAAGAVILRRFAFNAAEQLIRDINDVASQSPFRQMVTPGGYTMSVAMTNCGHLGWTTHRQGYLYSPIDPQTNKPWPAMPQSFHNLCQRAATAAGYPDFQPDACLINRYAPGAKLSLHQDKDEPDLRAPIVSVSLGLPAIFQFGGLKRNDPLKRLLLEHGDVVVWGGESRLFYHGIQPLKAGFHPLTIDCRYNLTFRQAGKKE

**Q.** What does the source list for O=C(O)CCC(=O)C(=O)O [αKG, α-ketoglutarate]?
**A.** Km ([1]; ALKBH2, ds-m1A): 7.3 ± 0.9 µM; kcat ([1]; ALKBH2, ds-m1A): 0.0417 ± 0.0017 s⁻¹; Km ([1]; ALKBH2, ds-m3C): 1.9 ± 0.4 µM; kcat ([1]; ALKBH2, ds-m3C): 0.0433 ± 0.0017 s⁻¹; Km ([1]; ALKBH2, ss-m1A): 4.1 ± 0.9 µM; kcat ([1]; ALKBH2, ss-m1A): 0.0183 ± 0.0017 s⁻¹; Km ([1]; ALKBH2, ss-m3C): 1.4 ± 0.2 µM; kcat ([1]; ALKBH2, ss-m3C): 0.0283 ± 0.0017 s⁻¹; Km ([2]; ALKBH3, ss-m1A): 2.3 ± 0.1 µM; kcat ([2]; ALKBH3, ss-m1A): 0.02 ± 0 s⁻¹; Km ([2]; ALKBH3, ss-m3C): 1.9 ± 0.4 µM; kcat ([2]; ALKBH3, ss-m3C): 0.0283 ± 0 s⁻¹; Km ([3]; ds-m1A): 12.7 ± 1.3 µM; kcat ([3]; ds-m1A): 0.08 ± 0.0033 s⁻¹; Km ([3]; ds-m3C): 10.8 ± 1.9 µM; kcat ([3]; ds-m3C): 0.137 ± 0.0067 s⁻¹; Km ([3]; ss-m1A): 7.1 ± 1.1 µM; kcat ([3]; ss-m1A): 0.07 ± 0.0033 s⁻¹; Km ([3]; ss-m3C): 19.9 ± 1.3 µM; kcat ([3]; ss-m3C): 0.408 ± 0.012 s⁻¹

**Q.** O=C(O)CC[C@H](O)C(=O)O [L-2HG, L-2-hydroxyglutarate] was tested. Which Ki ([4]; ALKBH3, ss-m1A) did it give?
**A.** 185 ± 23 µM

**Q.** What about the Ki ([4]; ALKBH3, ss-m3C) of the same compound?
**A.** 228 ± 16 µM

**Q.** And the Ki [5, 10]?
**A.** 598 ± 173 µM

**Q.** And the Ki [5, 11]?
**A.** 308 ± 108 µM

**Q.** What about the Ki [5, 12] of the same compound?
**A.** 337 ± 99 µM

**Q.** And the Ki [5, 13]?
**A.** 276 ± 111 µM

**Q.** What about the “inhibition of ALKBH2 activity” value [6] of the same compound?
**A.** 48–58%

**Q.** And the “inhibition of ALKBH3 activity” value [7]?
**A.** 31–40%

**Q.** And the “inhibition of ALKBH2 and ALKBH3 repair activities” value [8]?
**A.** 31–58%

**Q.** What does the source list for O=C(O)CNC(=O)C(=O)O [N-OG, N-oxalylglycine, reference compound]?
**A.** Ki ([9]; ALKBH2, ds-m1A): 16 ± 5 µM; Ki ([9]; ALKBH2, ds-m3C): 7 ± 2 µM; Ki ([9]; ALKBH2, ss-m1A): 30 ± 7 µM; Ki ([9]; ALKBH2, ss-m3C): 40 ± 7 µM; potency relative to D- and L-2HG ([9]; from Ki values, all repair reactions): about 10 times; Ki ([4]; Ki, ALKBH3, ss-m1A): 27 ± 4 µM; Ki ([4]; Ki, ALKBH3, ss-m3C): 37 ± 3 µM; Ki [5]: 2 ± 1.3 µM; Ki ([5]; Ki, AlkB, ds-m3C, versus αKG, 37 °C): 0.2 µM; Ki ([5]; Ki, AlkB, ss-m1A, versus αKG, 37 °C): 0.4 ± 0.1 µM; Ki ([5]; Ki, AlkB, ss-m3C, versus αKG, 37 °C): 0.4 ± 0.1 µM

**Q.** How did the Ki ([4]; ALKBH3, ss-m1A) turn out when O=C(O)CC[C@@H](O)C(=O)O [D-2HG, D-2-hydroxyglutarate] was run?
**A.** 545 ± 77 µM

**Q.** And the Ki ([4]; ALKBH3, ss-m3C)?
**A.** 490 ± 46 µM

**Q.** And the Ki [5, 10]?
**A.** 529 ± 126 µM

**Q.** What about the Ki [5, 11] of the same compound?
**A.** 230 ± 55 µM

**Q.** What about the Ki [5, 12] of the same compound?
**A.** 571 ± 166 µM

**Q.** What about the Ki [5, 13] of the same compound?
**A.** 447 ± 113 µM
